Consider 12 compounds from the supplement of paper PMC11368000.

Each structure is given as a SMILES string.

The first experiment has as its system 1309 (donor line of iPSC-derived cardiomyocytes). Briefly: POD (EC10) for decrease in total cell number (cytotoxicity) vs vehicle; higher = less potent (higher point of departure). Particulars: exposure time: 90 min. The procedure:
(§1)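 Human iPSC-derived cardiomyocytes from 16 donors were exposed for 90 min at 37 °C to each PFAS at 0.1, 1, 10 and 100 µM in 0.5% DMSO, 384-well plates. Kinetic Ca2+ flux (FLIPR) and Hoechst nuclei counts were normalised to vehicle wells and fitted with a hierarchical Bayesian Hill model to give donor-specific PODs: EC05 for beat-rate increase or decrease and for decay-to-rise ratio increase (QT proxy), EC95 for peak-frequency loss (asystole), EC10 for total cell number loss. 0.03 µM is the lower bound.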
Turning to `OCCC(F)(F)C(F)(F)C(F)(F)C(F)(F)F` [4:2 Fluorotelomer alcohol], the POD vs vehicle is more than 100 µM.

As for `OCC(F)(F)C(F)(F)C(F)(F)C(F)(F)C(F)(F)C(F)(F)F` [6:1 Fluorotelomer alcohol], the POD vs vehicle is 98.6 µM.

Compound `O=C([O-])C(F)(F)C(F)(F)C(F)(F)C(F)(F)C(F)(F)C(F)(F)C(F)(F)F.[NH4+]` [Ammonium_perfluorooctanoate] registered a POD vs vehicle of more than 100 µM.

Compound `OCC(F)(F)OC(F)(F)C(F)(F)OC(F)(F)C(F)(F)OC(F)(F)F` [Fluorinated_triethylene_glycol_monomethyl_ether] displayed a POD vs vehicle of 65.6 µM.

Compound `NC(=O)C(F)(F)C(F)(F)C(F)(F)F` [Heptafluorobutyramide] displayed a POD vs vehicle of more than 100 µM.

Take `O=C(O)C(F)(F)C(F)(F)C(F)(F)C(F)(F)C(=O)O` [Octafluoroadipic_acid]: the POD vs vehicle is more than 100 µM.

Take `O=C(O)C(F)(F)OC(F)(F)C(F)(F)OC(F)(F)C(F)(F)OC(F)(F)C(F)(F)C(F)(F)C(F)(F)F` [Perfluoro-3,6,9-trioxatridecanoic_acid]: the POD vs vehicle was more than 100 µM.

The compound `O=C(O)C(F)(F)C(F)(F)C(F)(F)C(F)(F)C(F)(F)C(F)(F)F` [Perfluoroheptanoic_acid] gave a POD vs vehicle of more than 100 µM.

For `NC(=O)C(F)(F)C(F)(F)C(F)(F)C(F)(F)C(F)(F)C(F)(F)C(F)(F)F` [Perfluorooctanamide], the POD vs vehicle was more than 100 µM.

The compound `N=C(N)C(F)(F)C(F)(F)C(F)(F)C(F)(F)C(F)(F)C(F)(F)C(F)(F)F` [Perfluorooctanamidine] registered a POD vs vehicle of more than 100 µM.

A further experiment deals with 20032 (donor line of iPSC-derived cardiomyocytes). Described as above. The note with it: exposure time: 90 min. The procedure:
as §1
Consider `OCC(F)(F)C(F)(F)C(F)(F)C(F)F` [1H,1H,5H-Perfluoropentanol], for which the POD vs vehicle was more than 100 µM.

Take `O=S(=O)(OCC(F)(F)F)C(F)(F)C(F)(F)C(F)(F)C(F)(F)F` [2,2,2-Trifluoroethyl_perfluorobutanesulfonate]: the POD vs vehicle was more than 100 µM.

`OCCC(F)(F)C(F)(F)C(F)(F)C(F)(F)F` [4:2 Fluorotelomer alcohol]: the POD vs vehicle was more than 100 µM.

In turn, `OCC(F)(F)C(F)(F)C(F)(F)C(F)(F)C(F)(F)C(F)(F)F` [6:1 Fluorotelomer alcohol] displayed a POD vs vehicle of more than 100 µM.

With `O=C([O-])C(F)(F)C(F)(F)C(F)(F)C(F)(F)C(F)(F)C(F)(F)C(F)(F)F.[NH4+]` [Ammonium_perfluorooctanoate], the POD vs vehicle was more than 100 µM.

As to `NC(=O)C(F)(F)C(F)(F)C(F)(F)F` [Heptafluorobutyramide], the POD vs vehicle is more than 100 µM.

On to `O=C(O)C(F)(F)OC(F)(F)C(F)(F)OC(F)(F)C(F)(F)OC(F)(F)C(F)(F)C(F)(F)C(F)(F)F` [Perfluoro-3,6,9-trioxatridecanoic_acid], for which the POD vs vehicle was more than 100 µM.

In turn, `O=C(O)C(F)(F)C(F)(F)C(F)(F)C(F)(F)C(F)(F)C(F)(F)F` [Perfluoroheptanoic_acid] returned a POD vs vehicle of more than 100 µM.

Regarding `NC(=O)C(F)(F)C(F)(F)C(F)(F)C(F)(F)C(F)(F)C(F)(F)C(F)(F)F` [Perfluorooctanamide], the POD vs vehicle is more than 100 µM.

Consider `N=C(N)C(F)(F)C(F)(F)C(F)(F)C(F)(F)C(F)(F)C(F)(F)C(F)(F)F` [Perfluorooctanamidine], for which the POD vs vehicle was more than 100 µM.

Another experiment has as its system 1083 (donor line of iPSC-derived cardiomyocytes). Described as above. Particulars: exposure time: 90 min. The procedure: as §1
Take `OCC(F)(F)C(F)(F)C(F)(F)C(F)F` [1H,1H,5H-Perfluoropentanol]: the POD vs vehicle is more than 100 µM.

Take `O=S(=O)(OCC(F)(F)F)C(F)(F)C(F)(F)C(F)(F)C(F)(F)F` [2,2,2-Trifluoroethyl_perfluorobutanesulfonate]: the POD vs vehicle was more than 100 µM.

`OCCC(F)(F)C(F)(F)C(F)(F)C(F)(F)F` [4:2 Fluorotelomer alcohol] had a POD vs vehicle of more than 100 µM.

`OCC(F)(F)C(F)(F)C(F)(F)C(F)(F)C(F)(F)C(F)(F)F` [6:1 Fluorotelomer alcohol] showed a POD vs vehicle of more than 100 µM.

In turn, `O=C([O-])C(F)(F)C(F)(F)C(F)(F)C(F)(F)C(F)(F)C(F)(F)C(F)(F)F.[NH4+]` [Ammonium_perfluorooctanoate] registered a POD vs vehicle of more than 100 µM.

In the case of `OCC(F)(F)OC(F)(F)C(F)(F)OC(F)(F)C(F)(F)OC(F)(F)F` [Fluorinated_triethylene_glycol_monomethyl_ether], the POD vs vehicle was more than 100 µM.

Regarding `NC(=O)C(F)(F)C(F)(F)C(F)(F)F` [Heptafluorobutyramide], the POD vs vehicle was more than 100 µM.

Compound `O=C(O)C(F)(F)C(F)(F)C(F)(F)C(F)(F)C(=O)O` [Octafluoroadipic_acid] had a POD vs vehicle of more than 100 µM.

Take `O=C(O)C(F)(F)OC(F)(F)C(F)(F)OC(F)(F)C(F)(F)OC(F)(F)C(F)(F)C(F)(F)C(F)(F)F` [Perfluoro-3,6,9-trioxatridecanoic_acid]: the POD vs vehicle was more than 100 µM.

`O=C(O)C(F)(F)C(F)(F)C(F)(F)C(F)(F)C(F)(F)C(F)(F)F` [Perfluoroheptanoic_acid] registered a POD vs vehicle of more than 100 µM.

Take `NC(=O)C(F)(F)C(F)(F)C(F)(F)C(F)(F)C(F)(F)C(F)(F)C(F)(F)F` [Perfluorooctanamide]: the POD vs vehicle was more than 100 µM.

As for `N=C(N)C(F)(F)C(F)(F)C(F)(F)C(F)(F)C(F)(F)C(F)(F)C(F)(F)F` [Perfluorooctanamidine], the POD vs vehicle is more than 100 µM.

In another experiment the test system is 1516 (donor line of iPSC-derived cardiomyocytes). The experiment is described as above. The note with it: exposure time: 90 min. The procedure: as §1
The compound `OCC(F)(F)C(F)(F)C(F)(F)C(F)F` [1H,1H,5H-Perfluoropentanol] came in with a POD vs vehicle of more than 100 µM.

For the compound `O=S(=O)(OCC(F)(F)F)C(F)(F)C(F)(F)C(F)(F)C(F)(F)F` [2,2,2-Trifluoroethyl_perfluorobutanesulfonate], the POD vs vehicle is more than 100 µM.

Compound `OCCC(F)(F)C(F)(F)C(F)(F)C(F)(F)F` [4:2 Fluorotelomer alcohol] had a POD vs vehicle of more than 100 µM.

In turn, `O=C([O-])C(F)(F)C(F)(F)C(F)(F)C(F)(F)C(F)(F)C(F)(F)C(F)(F)F.[NH4+]` [Ammonium_perfluorooctanoate] displayed a POD vs vehicle of more than 100 µM.

Turning to `OCC(F)(F)OC(F)(F)C(F)(F)OC(F)(F)C(F)(F)OC(F)(F)F` [Fluorinated_triethylene_glycol_monomethyl_ether], the POD vs vehicle was more than 100 µM.

`NC(=O)C(F)(F)C(F)(F)C(F)(F)F` [Heptafluorobutyramide] gave a POD vs vehicle of more than 100 µM.

With `O=C(O)C(F)(F)C(F)(F)C(F)(F)C(F)(F)C(=O)O` [Octafluoroadipic_acid], the POD vs vehicle is more than 100 µM.

Compound `O=C(O)C(F)(F)OC(F)(F)C(F)(F)OC(F)(F)C(F)(F)OC(F)(F)C(F)(F)C(F)(F)C(F)(F)F` [Perfluoro-3,6,9-trioxatridecanoic_acid] yielded a POD vs vehicle of 55.4 µM.

Turning to `NC(=O)C(F)(F)C(F)(F)C(F)(F)C(F)(F)C(F)(F)C(F)(F)C(F)(F)F` [Perfluorooctanamide], the POD vs vehicle was more than 100 µM.

`N=C(N)C(F)(F)C(F)(F)C(F)(F)C(F)(F)C(F)(F)C(F)(F)C(F)(F)F` [Perfluorooctanamidine] came in with a POD vs vehicle of more than 100 µM.

In another experiment the test system is 30145 (donor line of iPSC-derived cardiomyocytes). Briefly: POD (EC05) for increase in beat frequency (positive chronotrope) vs vehicle; higher = less potent (higher point of departure). Particulars: exposure time: 90 min. The gist of the method:
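Human iPSC-derived cardiomyocytes from 16 donors were cultured 14 days in gelatin-coated 384-well plates and loaded 2 h with fluorescent Ca2+ dye. They were then exposed for 90 min at 37 °C to 0.1, 1, 10 and 100 µM (final, 0.5% DMSO). Ca2+ flux was recorded on a FLIPR Tetra (8 frames/s, 100 s) before and after exposure. Donor-specific points of departure came from hierarchical Bayesian Hill fits to vehicle-normalised beat frequency, decay-to-rise ratio or peak frequency. Thresholds were 5% change, or 95% loss for peak frequency.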
`OCC(F)(F)C(F)(F)C(F)(F)C(F)F` [1H,1H,5H-Perfluoropentanol] returned a POD vs vehicle of more than 100 µM.

Consider `O=S(=O)(OCC(F)(F)F)C(F)(F)C(F)(F)C(F)(F)C(F)(F)F` [2,2,2-Trifluoroethyl_perfluorobutanesulfonate], for which the POD vs vehicle is more than 100 µM.

Regarding `OCC(F)(F)C(F)(F)C(F)(F)C(F)(F)C(F)(F)C(F)(F)F` [6:1 Fluorotelomer alcohol], the POD vs vehicle is more than 100 µM.

`O=C(O)C(F)(F)C(F)(F)C(F)(F)C(F)(F)C(=O)O` [Octafluoroadipic_acid] displayed a POD vs vehicle of more than 100 µM.

Consider `O=C(O)C(F)(F)OC(F)(F)C(F)(F)OC(F)(F)C(F)(F)OC(F)(F)C(F)(F)C(F)(F)C(F)(F)F` [Perfluoro-3,6,9-trioxatridecanoic_acid], for which the POD vs vehicle was more than 100 µM.

In turn, `O=C(O)C(F)(F)C(F)(F)C(F)(F)C(F)(F)C(F)(F)C(F)(F)F` [Perfluoroheptanoic_acid] displayed a POD vs vehicle of more than 100 µM.

Regarding `NC(=O)C(F)(F)C(F)(F)C(F)(F)C(F)(F)C(F)(F)C(F)(F)C(F)(F)F` [Perfluorooctanamide], the POD vs vehicle is more than 100 µM.

In turn, `N=C(N)C(F)(F)C(F)(F)C(F)(F)C(F)(F)C(F)(F)C(F)(F)C(F)(F)F` [Perfluorooctanamidine] registered a POD vs vehicle of more than 100 µM.
